Patent US11913884B2, “Visible light-activated dyes and methods of use thereof” (William Marsh Rice University, priority 2019, dated 2024)
Several values for one entry are separate records, joined by “and”; a condition that tells them apart may be missing. Identical values can stand only once.

Assay: Photoactivation (turn-on) of thio-caged fluorophores in solution by light irradiation
Assay type: physicochemical
Excerpt: To determine whether a minimal one atom sulfur-for-oxygen substitution within fluorophores can lead to fluorescence quenching, thio-caged Nile Red (SNile Red, FIG. 1) was synthesized, in which a carbonyl group was replaced with a thiocarbonyl moiety. Treatment of Nile Red with Lawesson's reagent in refluxing benzene produced the desired SNile Red in a yield of 40%. […] Irradiation of SNile Red with red light (615 nm, 0.4 μW cm-2) led to the regeneration of fluorescent Nile Red in a high yield (FIG. 2A). The absorption maxima of SNile Red at 298, 368 and 652 nm were blue-shifted after desulfuration to 315 and 556 nm, in a good agreement with the absorption spectrum of authentic synthesized Nile Red (FIG. 2B). The A556/A652 value, representing the ratio of the absorbance maxima of Nile Red and SNile Red, increased from 0.25 to 30 after desulfuration reaction (FIG. 2B). Upon irradiation with red light, the fluorescence intensity of the desulfurated material at 626 nm increased 280-fold, accompanied by a change in fluorescence from dark to red (FIG. 2C). To evaluate the proper light source for SNile Red photoactivation, SNile Red was irradiated with either 470 nm, 615 nm, or 850 nm light for different times and fluorescence intensities at 626 nm were recorded. […] To further characterize the photoactivated product of SNile Red, ^1H NMR and ESI-MS spectral changes were measured in the process of photoactivation (FIG. 2A). […] Signals corresponding to phenyl moiety protons at 8.64, 8.62, 7.85, 7.73, 7.36, 7.04, and 6.79 ppm gradually disappeared, and were replaced by new signals appearing at 8.57, 8.13, 7.81, 7.72, 7.63, 6.85, 6.69 and 6.30 ppm, respectively. […] The photoactivated product was also characterized by ESI-mass spectrometric analysis FIG. 3). The observed m/z 319.2 corresponding to Nile Red confirms the photoactivation product of SNile Red is its oxo form. Both dialkylthioketones and diarylthioketones are known to undergo photo-oxidation reaction under oxygen and light to give the corresponding ketones (Coyle, 1985, Corsaro and Pistara, 1998). To investigate the effects of dissolved oxygen and light on the photoactivation of thio-caged fluorophores, the time profile of the fluorescence of SNile Red was measured in the presence or absence of light, or oxygen. […] To study the effect of oxygen during the photoactivation, the inventors prepared an oxygen-free SNile Red solution by bubbling nitrogen gas and irradiated at 615 nm. […] Inspired by the photoactivation mechanism of thioketones, it was hypothesized that singlet oxygen generated by self-sensitization can be the active species to oxidize thiocarbonyl groups within fluorophores (Coyle, 1985 and Corsaro and Pistara, 1998). […] The singlet oxygen quantum yield (DA) was further determined to be 0.36 with considering the absorption correction factor over the 600-630 nm region (Bonacin et al., 2009 and Adarsh et al., 2010) by referring to methylene blue (MB) (ΦΔ,MB=0.57 in dichloromethane; Li et al., 2013).
Encouraged by the excellent photoactivation properties of SNile Red, Lawesson's reagent was employed to introduce thiocarbonyl moieties into several different fluorophores, such as phthalimide (PI), coumarin (Cou) and acridone (ACD), obtaining yields ranging from 20-80% (FIG. 1). Next, characterization of the spectroscopic and photochemical properties of these thiocaged fluorophores and their oxidized products using UV-vis and fluorescence spectroscopies was performed (Table 1). […] Double thiocarbonyl substitution on 4-dimethylaminophthalimide (4-DMAP, FIG. 1) produced an even larger bathochromic shift of 166 nm. […] It was hypothesized that the red-shift and enhanced absorption seen with thiocarbonyl compounds were due to the reduced energy gap between the HOMO-LUMO in these fluorophores. This is consistent with the computational results discussed below. […]

A556/A652 value (after desulfuration reaction): 30 | absorption maxima after desulfuration (after irradiation with red light (615 nm, 0.4 μW cm-2)): 315 nm and 556 nm | A556/A652 value (before desulfuration reaction): 0.25
Compound: CCN(CC)c1ccc2nc3c4ccccc4c(=S)cc-3oc2c1 [SNile Red]
fluorescence change at 626 nm with light of shorter wavelengths than 652 nm (470 nm or 615 nm light): significant fluorescence enhancement | increase of fluorescence intensity at 626 nm (615 nm light in air for 20 mins): 90 fold | activation by light out of the absorbance range (850 nm, after 5 hrs): negligible activation | Turn-on (x-fold) (DMSO, footnote e: 470 nm, 0.4 μW cm^−2): 280^e x-fold | change of fluorescent spectrum (in the absence of light): no change | change of fluorescence intensity (oxygen-free solution (nitrogen bubbled), 615 nm, within 20 mins irradiation): no significant change | increase of fluorescence intensity at 626 nm (activation ratio) (upon irradiation with red light): 280 fold
